Measurements: US20070197532A1, “GLUCOKINASE ACTIVATORS” (priority 2005, published 2007)

molecular target: T1, glucokinase (GK) (Homo sapiens, UniProt P35557); test: enzymatic glucokinase activity assay (ATP consumption, KinaseGlo luminescence); format: biochemical; conditions: recombinant GK; 5 μM ATP, 5 mM Glucose, 2% DMSO, 60 min at room temperature; Kact = concentration giving 50% of the maximal increase in GK activity; read-out: pKact
T1 construct: I.D. No. 1 corresponds to residues 13-466 of glucokinase; made in house; host or cells: E. coli DH10b-T1r
T1 sequence (P35557 with tags, fused parts or gaps isoform P35557-2): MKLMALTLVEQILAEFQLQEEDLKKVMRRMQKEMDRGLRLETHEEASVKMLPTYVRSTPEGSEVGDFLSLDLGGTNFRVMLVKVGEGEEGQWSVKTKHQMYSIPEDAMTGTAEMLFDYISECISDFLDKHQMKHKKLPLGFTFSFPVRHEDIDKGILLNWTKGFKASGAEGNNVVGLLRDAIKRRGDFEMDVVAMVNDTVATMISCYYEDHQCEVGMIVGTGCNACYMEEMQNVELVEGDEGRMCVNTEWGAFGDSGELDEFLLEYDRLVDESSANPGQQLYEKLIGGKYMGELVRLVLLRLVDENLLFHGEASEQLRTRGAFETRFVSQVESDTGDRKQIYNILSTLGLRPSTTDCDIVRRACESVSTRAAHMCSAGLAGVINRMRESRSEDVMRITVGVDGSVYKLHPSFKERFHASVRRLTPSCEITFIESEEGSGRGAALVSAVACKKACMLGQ
Source text: The activity of compounds as glucokinase activators may be assayed in vitro, in vivo or in a cell line. Provided below is an enzymatic glucokinase activity assay.
Purified glucokinase may be obtained as follows. DNA encoding residues 12-465 of the full-length sequence of the human enzyme may be amplified by PCR and cloned into the HindIII and EcoRI sites of pFLAG-CTC (Sigma). SEQ. I.D. No. 1 corresponds to residues 13-466 of glucokinase.
The expression of recombinant glucokinase protein may be carried out by transformation and growth of DH10b-T1r E. coli cells incorporating the (pFLAG-CTC) plasmid in LB media. Protein expression can be induced in this system by the addition of IPTG to the culture medium.
Recombinant protein may be isolated from cellular extracts by passage over Sepharose Q Fast Flow resin (Pharmacia). This partially purified GK extract may then be further purified by a second passage over Poros HQ10 (Applied Biosystems). The purity of GK may be determined on denaturing SDS-PAGE gel. Purified GK may then be concentrated to a final concentration of 20.0 mg/ml. After flash freezing in liquid nitrogen, the proteins can be stored at −78° C. in a buffer containing 25 mM TRIS-HCl pH 7.6, 50 mM NaCl, and 0.5 mM TCEP.
The activation properties of compounds for GK may be determined using a black 384-well-plate format under the following reaction conditions: 25 mM Hepes pH 7.2, 25 mM NaCl, 10 mM MgCl2, 0.01% Brij35, 1 mM DTT, 5 μM ATP, 5 mM Glucose 2% DMSO. The amount of ATP consumed may be determined quantitatively by addition of equal volume of luciferase reagent (luciferase+beetle luciferin—KinaseGlo Luminescent Kinase Assay kit from Promega). The luminescence intensity may be measured by using the Analyst HT from LJL Biosystems.
The assay reaction may be initiated as follows: 4 μl of substrate mixture (12.5 μM ATP and 12.5 mM Glucose) was added to each well of the plate, followed by the addition of 2 μl of activator (2 fold serial dilutions for 11 data points for each activator) containing 10% DMSO. 4 μL of 1.25 nM GK solution may be added to initiate the reaction. The reaction mixture may then be incubated at room temperature for 60 min, and quenched and developed by addition of 10 μL of luciferase reagent. Luminescence intensities of the resulting reaction mixtures may be measured after a 10 min incubation at room temperature. The luminescence intensity may be measured by using the Analyst HT from LJL Biosystems.
pKact and % ACTmax values may be calculated by non-linear curve fitting of the compound concentrations and luminescence intensities to a standard inhibition/activation equation.

EC50 [nM] | SMILES
≤ 2000 | COc1ccccc1-c1nnc(SCC(=O)Nc2ccc(C)c(C)c2)[nH]1
≤ 2000 | Fc1ccccc1CSc1n[nH]c(-c2ccccc2OCc2ccccc2)n1
2510 to 3980 | COc1ccccc1-c1cc(-c2cccc(C#N)c2)n[nH]1
≤ 2000 | COc1cc(OCc2ccccc2)ccc1-c1cc(-c2ccc(F)cc2)n[nH]1
≤ 2000 | Cn1ccnc1COc1ccccc1-c1cc(-c2ccc(F)cc2)n[nH]1
2510 to 3980 | c1ccc(-c2cc(-c3cccc4c3OCC4)[nH]n2)cc1
≥ 5010 | COc1ccccc1-c1cc(-c2cccc(NC(C)=O)c2)n[nH]1
2510 to 3980 | COc1ccccc1-c1nc(SCC(=O)c2ccc(O)c(O)c2)n[nH]1
2510 to 3980 | COc1ccccc1-c1nc(SCc2ccccc2F)n[nH]1
≤ 2000 | FC(F)(F)COc1ccc(OCC(F)(F)F)c(-c2ccn[nH]2)c1
≤ 2000 | COc1ccccc1-c1nc(SCC(=O)N2CCOCC2)n[nH]1
≤ 2000 | COc1ccccc1-c1nnc(SCC(=O)Nc2ccccc2[N+](=O)[O-])[nH]1
≥ 5010 | COc1ccccc1-c1cc(OCc2ccccc2F)n[nH]1
2510 to 3980 | COc1ccccc1-c1cc(-c2ccccc2)n[nH]1
≥ 5010 | Fc1ccccc1COc1cc(-c2cccc3c2OCC3)[nH]n1
2510 to 3980 | COc1ccccc1-c1cc(-c2ccc(C#N)cc2)n[nH]1
2510 to 3980 | c1ccc(-c2cc(-c3ccccc3OCc3ccccn3)[nH]n2)cc1
≥ 5010 | COc1ccc(F)cc1-c1cc(OCc2ccccc2F)n[nH]1
≥ 5010 | COc1ccccc1-c1cc(-c2cccc(F)c2)[nH]n1
2510 to 3980 | COc1ccc(F)cc1-c1cc(-c2cccc(F)c2)[nH]n1
2510 to 3980 | Fc1ccc(-c2cc(-c3ccccc3Oc3ccccc3)[nH]n2)cc1

EC50 [nM] | SMILES
2510 to 3980 | COc1ccccc1-c1cc(-c2ccc(F)cc2)n[nH]1
≥ 5010 | Fc1ccc(-c2cc(-c3cccc(Oc4ncccn4)c3)[nH]n2)cc1
≤ 2000 | Fc1ccc(-c2cc(-c3cccc(Oc4ccccc4)c3)[nH]n2)cc1
≤ 2000 | CC1(C)Cc2cccc(-c3cc(-c4ccccc4)n[nH]3)c2O1
≥ 5010 | Brc1cc2c(c(-c3cc(-c4ccccc4)n[nH]3)c1)OCC2
2510 to 3980 | COc1ccccc1-c1cc(-c2cccc(N)c2)n[nH]1
≤ 2000 | COCCOc1cc(OCc2ccccc2)ccc1-c1cc(-c2ccccc2)n[nH]1
≥ 5010 | COc1ccccc1-c1cc(-c2ccc(N3CCOCC3)nc2)n[nH]1
≤ 2000 | c1ccc(COc2ccc(-c3cc(-c4ccccc4)n[nH]3)c(OCc3ccccn3)c2)cc1
2510 to 3980 | COc1ccccc1-c1cc(-c2cccc(NC(=O)c3ccccc3)c2)n[nH]1
2510 to 3980 | COc1ccccc1-c1cc(-c2ccc(N(C)C)nc2)n[nH]1
2510 to 3980 | c1ccc(-c2cc(-c3ccccc3Oc3cccnc3)[nH]n2)cc1
≤ 2000 | COc1cc([N+](=O)[O-])ccc1-c1cc(-c2ccccc2)n[nH]1
≥ 5010 | COc1ccccc1-c1cc(-c2ccc(N)cc2)n[nH]1
2510 to 3980 | COc1ccc(COc2ccc(-c3cc(-c4ccccc4)n[nH]3)c(OC)c2)cc1
≤ 2000 | COc1cc(NC(=O)c2ccccc2)ccc1-c1cc(-c2ccccc2)n[nH]1
≤ 2000 | COc1ccc(CNc2ccc(-c3cc(-c4ccccc4OC)[nH]n3)cn2)c(OC)c1
2510 to 3980 | COc1ccccc1-c1cc(-c2ccccc2Cl)n[nH]1
2510 to 3980 | COCCNc1ccc(-c2cc(-c3ccccc3OC)[nH]n2)cn1
2510 to 3980 | Clc1cccc(Oc2ccccc2-c2cc(-c3cccnc3)n[nH]2)c1
≥ 5010 | COc1ccc(NCc2ccccc2)cc1-c1cc(-c2ccccc2)n[nH]1

EC50 [nM] | SMILES
2510 to 3980 | COc1cc(NCc2ccccc2)ccc1-c1cc(-c2ccccc2)n[nH]1
2510 to 3980 | COc1ccc(NC(=O)c2ccccc2)cc1-c1cc(-c2ccccc2)n[nH]1
2510 to 3980 | COc1ccc(NS(=O)(=O)c2ccccc2)cc1-c1cc(-c2ccccc2)n[nH]1
≤ 2000 | COc1ccc(NC(=O)Cc2ccccc2)cc1-c1cc(-c2ccccc2)n[nH]1
≥ 5010 | COc1ccc(NC(=O)c2cncs2)cc1-c1cc(-c2ccccc2)n[nH]1
2510 to 3980 | COc1ccc(NC(=O)c2ccoc2)cc1-c1cc(-c2ccccc2)n[nH]1
≥ 5010 | COC[C@H](C)Oc1cc(OCc2ccccc2F)cc(-c2cc(OC)n[nH]2)c1
2510 to 3980 | COC[C@H](C)Oc1cc(OCc2ccc(S(C)(=O)=O)cc2)cc(-c2cc(OC)n[nH]2)c1
≤ 2000 | COC[C@H](C)Oc1cc(OCCc2ccsc2)cc(-c2cc(OC)n[nH]2)c1
≥ 5010 | COc1cc(-c2ccc3ncn(CC4CCCCC4)c3c2)[nH]n1
≥ 5010 | CS(=O)(=O)c1ccc(Oc2cc(OCc3ccccc3F)cc(-c3cc(O)n[nH]3)c2)cc1
≤ 2000 | COc1cc(-c2cc(OCc3ccccc3F)cc(Oc3ccc(S(C)(=O)=O)cc3)c2)[nH]n1
≤ 2000 | COC[C@H](C)Oc1cc(Oc2ccc(S(C)(=O)=O)cc2)cc(-c2cc(OC)n[nH]2)c1
2510 to 3980 | COC[C@H](C)Oc1cc(Oc2ccc(S(C)(=O)=O)cc2)cc(-c2cc(OCC(=O)OC)n[nH]2)c1
≥ 5010 | Cc1cccnc1COc1cc(Oc2ccc(S(C)(=O)=O)cc2)cc(-c2cc(O)n[nH]2)c1
≤ 2000 | COc1cc(-c2cc(OCc3ncccc3C)cc(Oc3ccc(S(C)(=O)=O)cc3)c2)[nH]n1
≤ 2000 | COc1cc(-c2cc(Oc3ccc(S(C)(=O)=O)cc3)cc(OC3CCCC3)c2)[nH]n1
≥ 5010 | Cc1ccccc1COc1cc(Oc2ccc(S(C)(=O)=O)cc2)cc(-c2cc(O)n[nH]2)c1
≤ 2000 | COc1cc(-c2cc(OCc3ccccc3C)cc(Oc3ccc(S(C)(=O)=O)cc3)c2)[nH]n1
